{
  "source": "paper PMC6630532",
  "about": "(ACS Infectious Diseases, 2019)",
  "origin": "cited, not measured here",
  "system": "bacteria",
  "details": "read-out: IC50 (in vitro antimicrobial effect of killing 50% of the bacteria)",
  "data": [
    {"substance": "H-TGRAKRRMQYNRR-NH2 [UBI29–41]", "values": [
      {"measurement": "IC50", "value": 20, "unit": "µM"}
    ]}
  ]
}
